According to patent US7741327B2 (Hoffmann-La Roche Inc., priority 2008, dated 2010):

Legend:
[1] = target: T1, Recombinant human liver GK1 (GST-GK) (Homo sapiens, UniProt P35557); assay: In vitro glucokinase activity (G6PDH-coupled NADH assay); format: biochemical; conditions: 30° C., 5 mM D-glucose, 10% DMSO
T1 construct: made in house; host or cells: E. coli
T1 sequence (P35557 1-466 isoform P35557-2): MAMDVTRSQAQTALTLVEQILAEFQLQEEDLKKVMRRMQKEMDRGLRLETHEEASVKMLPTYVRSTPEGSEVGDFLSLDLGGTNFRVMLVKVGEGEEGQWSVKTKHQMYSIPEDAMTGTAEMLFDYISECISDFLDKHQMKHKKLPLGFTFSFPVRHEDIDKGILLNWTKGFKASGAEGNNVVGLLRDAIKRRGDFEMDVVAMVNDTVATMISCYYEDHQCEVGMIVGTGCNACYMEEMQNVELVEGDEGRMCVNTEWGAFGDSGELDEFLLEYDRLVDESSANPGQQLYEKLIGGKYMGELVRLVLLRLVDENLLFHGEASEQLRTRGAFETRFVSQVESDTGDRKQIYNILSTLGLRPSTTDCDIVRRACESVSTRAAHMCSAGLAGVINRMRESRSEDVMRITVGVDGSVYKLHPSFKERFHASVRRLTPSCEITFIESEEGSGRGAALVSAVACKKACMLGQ
In short: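 Activation measured as the rate of OD340 rise from G6PDH-coupled NADH production, relative to 10% DMSO control, reported as SC1.5 (concentration for 50% activity increase). Conditions: 30° C, pH 7.1 Hepes, 5 mM glucose, 1 mM ATP, purified recombinant GST-human GK1, compound preincubated 10 min before enzyme addition.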

C57B6 mice = assay: Glucokinase activator in vivo screen: blood glucose lowering in mice after oral dosing; conditions: Mus musculus, vs control, read-out: % gluc lowering @ 4 H
Procedure: Glucokinase Activator in vivo Screen Protocol in Lean and Diet Induced Obese Mice: Lean or Diet-Induced Obese (DIO) C57BL/6J mice were orally dosed via gavage with Glucokinase (GK) activator following a two hour fasting period. Blood glucose determinations were made at various (e.g. 0, 1, 2, 4 and 8 h post-oral gavage) times during the study.
C57Bl/6J mice were obtained from Jackson Laboratory (Bar Harbor, Me.) and were maintained in a light-dark cycle with lights on from 0600-1800 hr. For studies in lean mice, the mice were received at age ten weeks and given ad libitum access to control diet (LabDiet 5001 chow, PMI Nutrition, Brentwood, Mo.), and were at least age 11 weeks at the time of study. For studies in the DIO model, the mice were received at age five weeks and given ad libitum access to Bio-Serv F3282 High Fat Diet (Frenchtown, N.J.), and were at least age 16 weeks at the time of study. The experiments were conducted during the light phase of the light-dark cycle. Mice (n=6) are weighed and fasted for a two hour period prior to oral treatment. GK activators are formulated in Gelucire vehicle (Ethanol:Gelucire44/14:PEG400q.s. 4:66:30 v/w/v. For studies in lean mice, the mice were dosed orally with 5.0 μL per gram of body weight (i.e. 5 ml/kg×10.0 mg/ml formulation to equal a 50 mg/kg dose). For studies in DIO mice, the mice were dosed orally with 5.0 μL per gram of body weight (i.e. 5.0 ml/kg×5 mg/ml formulation to equal a 25 mg/kg dose). Immediately prior to dosing, a pre-dose (time zero) blood glucose reading was acquired by snipping off a small portion of the animal's tail and collecting 15 μL blood into a heparinized capillary tube for analysis. Following GK activator administration, additional blood glucose readings were taken at various time points post dose from the same tail wound. Results were interpreted by comparing the mean blood glucose values of vehicle treated mice with GK activator treated mice over the study period.
The Table below provides data for % glucose lowering of a representative number of compounds of the present invention vs control at 4 h post 25 or 30 mg/kg dose in C57B6 mice: […]

SC1.5 (concentration of activator that produced a 50% increase in the activity of GK) [1] [µM] | Structure (SMILES) | change in vivo at 25 mg/kg (C57B6 mice; 4 h post 25 mg/kg oral dose) [%] | change in vivo at 30 mg/kg (C57B6 mice; 4 h post 30 mg/kg oral dose) [%]
0.013 | COc1ccccc1OC1=CC(=O)N([C@@H](CC2CCCCC2)C(=O)Nc2ccn(CC(C)(C)O)n2)C1 [Example 28, (S)-3-Cyclohexyl-N-[1-(2-hydroxy-2-methyl-propyl)-1H-pyrazol-3-yl]-2-[4-(2-methoxy-phenoxy)-2-oxo-2,5-dihydro-pyrrol-1-yl]-propionamide] | -45.4 | 
0.021 | CC(C)(O)Cn1ccc(NC(=O)[C@H](CC2CCCC2)N2CC(Oc3c(F)cccc3F)=CC2=O)n1 [Example 86, (S)-3-Cyclopentyl-2-[4-(2,6-difluoro-phenoxy)-2-oxo-2,5-dihydro-pyrrol-1-yl]-N-[1-(2-hydroxy-2-methyl-propyl)-1H-pyrazol-3-yl]-propionamide] |  | -57.4
